Measured values as given in US4196205A, “3-Acetoxymethyl-7-(iminoacetamido)-cephalosporanic acid derivatives” (priority 1976, dated 1980).
Values after ≈ are worked out from the molar mass of the structure shown. Where two headings read alike, the source gives them in different places.

Assays:
Test in all cases: MIC, dilution in liquid medium
Type in all cases: cell-based
[1] = system: Streptococcus pyogenes A 561; details: Streptococcus pyogenes, read-out: M.I.C.
In short: (§1)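 Liquid-medium dilution: equal nutrient broth per tube, graded compound doses, strain inoculated; 24–48 h, 37° C; MIC (g/ml) read by transillumination.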

[2] = system: Escherichia Coli Sensible Tetracycline ATCC 9 637 = 1020; details: Escherichia coli
In short: as §1

[3] = system: Staphylococcus aureus exp. n° 54 146; details: Staphylococcus aureus
In short: as §1

[4] = system: Staphylococcus aureus UC 1 128 Pen-Resistant; details: Staphylococcus aureus
In short: as §1

[5] = system: Staphylococcus aureus ATCC 5 638 Pen-Sensible = UC 1061
In short: as §1

[6] = system: Bacillus subtilis ATCC 6 633; details: Bacillus subtilis
In short: as §1

[7] = system: Klebsiella pneumoniae Exp. 52 145; details: Klebsiella pneumoniae, read-out: M.I.C.
In short: as §1

[8] = system: Serratia Resistant Gentamicine 2 532
In short: as §1

[9] = system: Escherichia Coli Resistant Gentamicine, Tobramycine R 55 123 D; details: Escherichia coli
In short: as §1

[10] = system: Proteus vulgaris (indol+) A 232; details: Proteus vulgaris, 24 h
In short: as §1

[11] = system: Staphylococcus aureus Co 15 Resistant Cephalexine
In short: as §1

[12] = system: Salmonella typhimurium 420; details: Salmonella enterica, TYPHIMURIUM
In short: as §1

[13] = system: Escherichia Coli Resistant Tetracycline ATCC 11 303 = UC 1261; details: Escherichia coli, read-out: M.I.C.
In short: as §1

[14] = system: Streptococcus faecalis 5 432
In short: as §1

[15] = system: Escherichia Coli Exp. TO26 B6; details: Escherichia coli
In short: as §1

[16] = system: Klebsiella pneumoniae 2 536 Resistant Gentamicine; details: Klebsiella pneumoniae
In short: as §1

Providencia Du 48 = details: Providencia
In short: as §1

[17] = system: Pseudomonas 3 935 Exp. SG; details: Pseudomonas, 3935EXP.SG
In short: as §1

Q: `C=CCO/N=C(\C(=O)N[C@@H]1C(=O)N2C(C(=O)O)=C(COC(C)=O)CS[C@H]12)c1csc(N)n1` [Example 9, 3-acetoxymethyl-7-[2-(2-amino-4-thiazolyl)-2-(2-propenyl)oxyiminoacetamido]-ceph-3-eme-4-carboxylic acid] was tested. Which MIC ([1]; A561, 24 h, 24 H) did it give?
A: 0.02 µg/mL (≈ 0.0415 µM)

Q: What about the MIC ([1]; A561, 48 h, 48 H) of the same compound?
A: 0.02 µg/mL (≈ 0.0415 µM)

Q: What about the MIC ([2]; ATCC9, 24 h, 24 H) of the same compound?
A: 1 µg/mL (≈ 2.08 µM)

Q: And the MIC ([2]; ATCC9, 48 h, 48 H)?
A: 1 µg/mL (≈ 2.08 µM)

Q: And the MIC ([3]; 24 h)?
A: 2 µg/mL (≈ 4.15 µM)

Q: And the MIC ([3]; 48 h)?
A: 2 µg/mL (≈ 4.15 µM)

Q: And the MIC ([4]; UC1, 24 h, 24 H)?
A: 2 µg/mL (≈ 4.15 µM)

Q: And the MIC ([4]; UC1, 48 h, 48 H)?
A: 2 µg/mL (≈ 4.15 µM)

Q: And the MIC ([5]; 24 h)?
A: 1 µg/mL (≈ 2.08 µM)

Q: And the MIC ([5]; 48 h)?
A: 2 µg/mL (≈ 4.15 µM)

Q: And the MIC ([6]; ATCC6, 24 h, 24 H)?
A: 1 µg/mL (≈ 2.08 µM)

Q: What about the MIC ([6]; ATCC6, 48 h, 48 H) of the same compound?
A: 1 µg/mL (≈ 2.08 µM)

Q: And the MIC ([7]; EXP.52145, 24 h, 24 H)?
A: 0.05 µg/mL (≈ 0.104 µM)

Q: And the MIC ([7]; EXP.52145, 48 h, 48 H)?
A: 0.1 µg/mL (≈ 0.208 µM)

Q: And the MIC ([8]; 24 h, read-out: M.I.C.)?
A: 0.4 µg/mL (≈ 0.831 µM)

Q: What about the MIC ([8]; 48 h) of the same compound?
A: 1 µg/mL (≈ 2.08 µM)

Q: What about the MIC ([9]; 24 h) of the same compound?
A: 1 µg/mL (≈ 2.08 µM)

Q: And the MIC ([9]; 48 h)?
A: 1 µg/mL (≈ 2.08 µM)

Q: And the MIC [10]?
A: 2 µg/mL (≈ 4.15 µM)

Q: And the MIC ([11]; 24 h, read-out: M.I.C.)?
A: 10 µg/mL (≈ 20.8 µM)

Q: And the MIC ([11]; 48 h)?
A: 20 µg/mL (≈ 41.5 µM)

Q: And the MIC ([12]; 24 h)?
A: 1 µg/mL (≈ 2.08 µM)

Q: And the MIC ([12]; 48 h, read-out: M.I.C.)?
A: 10 µg/mL (≈ 20.8 µM)

Q: And the MIC ([13]; 24 h)?
A: 0.1 µg/mL (≈ 0.208 µM)

Q: What about the MIC ([13]; 48 h) of the same compound?
A: 0.1 µg/mL (≈ 0.208 µM)

Q: What about the MIC ([14]; Enterococcus faecalis, 5432, 24 h, 24 H) of the same compound?
A: 2 µg/mL (≈ 4.15 µM)

Q: What about the MIC ([14]; Enterococcus faecalis, 5432, 48 h, read-out: M.I.C.) of the same compound?
A: 10 µg/mL (≈ 20.8 µM)

Q: What about the MIC ([15]; 24 h) of the same compound?
A: 1 µg/mL (≈ 2.08 µM)

Q: And the MIC ([15]; 48 h)?
A: 1 µg/mL (≈ 2.08 µM)

Q: And the MIC ([16]; 24 h)?
A: 2 µg/mL (≈ 4.15 µM)

Q: What about the MIC ([16]; 48 h) of the same compound?
A: 5 µg/mL (≈ 10.4 µM)

Q: And the MIC (Providencia Du 48; DU48, 24 h, 24 H)?
A: 3 µg/mL (≈ 6.23 µM)

Q: And the MIC (Providencia Du 48; DU48, 48 h, 48 H)?
A: 5 µg/mL (≈ 10.4 µM)

Q: What about the MIC ([17]; 24 h) of the same compound?
A: 20 µg/mL (≈ 41.5 µM)

Q: What about the MIC ([17]; 48 h) of the same compound?
A: 20 µg/mL (≈ 41.5 µM)
